Assay results as given in patent US20140314780A1, “Compositions Using Antibodies Directed to GPNMB and Uses Thereof” (Celldex Therapeutics, Inc., priority 2008, published 2014).
Entries after “also recorded” stand apart in the source; their conditions may differ.

How the values were obtained:
Type in all cases: cell-based, human
GPNMB = experiment: Immunoblotting for GPNMB on whole-cell lysates of cancer cell lines after drug exposure; conditions: for increase of GPNMB expression in the screen: determined by immunoblotting and/or flow cytometry analysis; for GPNMB expressed after protein synthesis inhibition: 1 hour, absence of ammonium chloride (FIG. 6D)
Excerpt: Cancer cell lines were of human origin and were obtained from the American Type Culture Collection (Manassas, Va.) and from the National Cancer Institute (Bethesda, Md.) and cultured in RPMI-1640 supplemented with 10% FBS (growth media). Sources of reagents were as follows: RAFKi (553013), MEKi (U0126), MEKi (PD98059), MEKi (444939), ERKi (FR180204), p38 MAPKi (SB202190), p38 MAPKi (SB203580), aurora kinase inhibitor (189404), JNK inhibitor (420119), MMPi (GM6001) were from EMD Chemicals (San Diego, Calif.). ERKi (A6355), RAFKi: (GW5074), ammonium chloride (NH4Cl), chloroquine, monensin, cyclohexamide and emetine were from Sigma (Saint Louis, Mo.). HSP90i (geldanamycin) was from AG Scientific (San Diego, Calif.) and imatinib (Gleevec) was purchased from a pharmacy.
Cells were seeded in 6-well tissue culture dishes at a subconfluent density and allowed to attach overnight. For harvesting cell lysates, media was removed, cells were briefly washed with serum-free media and then 1× Tris-glycine SDS sample buffer (Invitrogen, Carlsbad, Calif.) supplemented with 10 mM dithiothreitol (Sigma) was added directly to the wells. Cell lysates were then collected and boiled for 10 minutes. For preparing conditioned media, drug treatments were performed in a minimum volume of growth media (1.5 mL/well). Following 48 hours of incubation, conditioned media was collected, briefly microfuged, mixed with an equal volume of 2× Tris-glycine SDS sample buffer (Invitrogen, Carlsbad, Calif.) supplemented with 20 mM dithiothreitol (Sigma) and boiled for 10 minutes. For cell lysates, samples were quantified and an equal quantity of protein/lane was resolved on 4-20% gradient polyacrylamide gels (Invitrogen) and then transferred to nitrocellulose filters (Invitrogen). The volume of conditioned media loaded/lane was adjusted based on the protein concentration determined in the respective cell lysates. Immunoblotting was performed using standard procedures and the following primary antibodies: MARTI (sc-20032), TYRP2 (sc-25544), TYRP1 (sc-25543), PMEL17 (sc-15010), MAGEA1 (sc-20033), MCSP (sc-20162), MTf (sc-26651), MCAM (sc-18942), pp-ERK (sc-7976) and ERK (sc-94) (preceding antibodies were purchased from Santa Cruz Biotechnologies, Santa Cruz, Calif.), GPNMB (AF2550; R & D Systems, Minneapolis Minn.), actin (A5060; Sigma). Following incubation with the appropriate horseradish peroxidase-conjugated secondary antibodies, enhanced chemiluminescence (GE Healthcare, Chalfont St. Giles, United Kingdom) was used for detection.

[1] = tested on: GPNMB surface expression on A375 melanoma cells; experiment: Flow cytometry of GPNMB surface expression, A375 cells; conditions: for GPNMB surface expression, flow cytometry GeoMean: A375, CR011 (anti-GPNMB) primary antibody
Protocol: (§1) Cells were seeded in 6-well tissue culture dishes at a subconfluent density and allowed to attach overnight. The following day, cells were treated as indicated in the figures/legends, harvested with versene (Invitrogen), washed with PBS and incubated with primary antibody (10 μg/mL) diluted in staining buffer (PBS pH 7.4, 4% FBS, 0.1% sodium azide) for 30 minutes on ice. […] After incubation with primary antibody, samples were washed with staining buffer and then incubated with secondary antibody (PE-conjugated anti-human antibody; 1:100) for 30 minutes on ice. After incubation, samples were washed with staining buffer and examined on a Becton Dickinson FACSCalibur flow cytometer (BD Immunocytometry Systems, San Jose, Calif.). Data analysis was performed with Becton Dickinson Cell Quest software and the geometric mean fluorescence intensity (GeoMean) was determined for each sample.
(§2) For the data shown in Table 37, flow cytometry was performed on intact, non-permeabilized cells using the indicated primary monoclonal antibodies. […] The results are reported as GeoMeans. […] For the data shown in the bottom left panel of Table 37, SKMEL2 (melanoma) cells were treated with MEKi (U0126; 10 uM), imatinib (20 uM), p38i (p38 MAPKi SB202190; 50 uM), NH4Cl (ammonium chloride; 20 mM) or CLQ (chloroquine; 20 uM) for 48 hours prior to analysis. For the data shown in the bottom right panel of Table 37, WM2664 (melanoma) cells were treated with MON (monensin) or MMPi (GM6001) for 48 hours prior to analysis.

phospho-ERK (pp-ERK) = experiment: Immunoblotting for phospho-ERK (level of ERK activation)
Excerpt: In the experiment presented in FIG. 2A, potential inhibition of the ERK pathway was investigated by immunoblotting for phospho-ERK (pp-ERK), which represents the active form of this signaling molecule.

[2] = tested on: GPNMB surface expression on SF539 glioblastoma cells; experiment: Flow cytometry of GPNMB surface expression, SF539 cells; conditions: SF549, CR011 (anti-GPNMB) primary antibody
Protocol: as §1, §2

UACC62 melanoma cells = experiment: In vitro growth-inhibition/cytotoxicity assay, UACC62 cells; conditions: 0.16 μg/mL, 72 hours, trypan blue
[3] = tested on: GPNMB surface expression on SKMEL2 melanoma cells; experiment: Flow cytometry of GPNMB surface expression, SKMEL2 cells; conditions: for GPNMB surface expression, flow cytometry GeoMean: SKMEL2, CR011 (anti-GPNMB) primary antibody, MEKi (U0126) 10 uM, imatinib 20 uM, p38i (SB202190) 50 uM; for GPNMB surface-expression: SKMEL2 cells, 48 hours (Table 37, bottom left)
Protocol: as §1
For the data shown in Table 37, flow cytometry was performed on intact, non-permeabilized cells using the indicated primary monoclonal antibodies. […] The results are reported as GeoMeans. For the data shown in the top panel of Table 37, A375 (melanoma) or SF539 (glioblastoma) cells were treated with the indicated concentrations of MEKi (U0126), RAFKi (553013) or ERKi (FR180204) for 12, 24 or 48 hours prior to analysis. For the data shown in the bottom left panel of Table 37, SKMEL2 (melanoma) cells were treated with MEKi (U0126; 10 uM), imatinib (20 uM), p38i (p38 MAPKi SB202190; 50 uM), NH4Cl (ammonium chloride; 20 mM) or CLQ (chloroquine; 20 uM) for 48 hours prior to analysis. For the data shown in the bottom right panel of Table 37, WM2664 (melanoma) cells were treated with MON (monensin) or MMPi (GM6001) for 48 hours prior to analysis.

[4] = melanoma lines SKMEL2, A375, WM2664, MEWO, 48 hours (FIG. 6A)

Compound: N.N.[Cl][Pt][Cl] [cisplatin]
- increase of GPNMB expression in the screen (GPNMB): ineffective

Compound: Nc1n[nH]c2nnc(-c3c(-c4ccccc4)nn4ccccc34)cc12 [FR180204, 5-(2-phenylpyrazolo[1,5-a]pyridin-3-yl)-1H-pyrazolo[3,4-c]pyridazin-3-amine]
- GPNMB surface expression, flow cytometry GeoMean ([1]; ERKi (FR180204) 3.1 uM, 12 h): 13.0
- GPNMB surface expression, flow cytometry GeoMean ([1]; ERKi (FR180204) 3.1 uM, 24 h): 13.5
- GPNMB surface expression, flow cytometry GeoMean ([1]; ERKi (FR180204) 3.1 uM, 48 h): 13.1
- GPNMB surface expression, flow cytometry GeoMean ([1]; ERKi (FR180204) 50 um, 12 h): 13.0
- GPNMB surface expression, flow cytometry GeoMean ([1]; ERKi (FR180204) 50 um, 24 h): 14.9
- GPNMB surface expression, flow cytometry GeoMean ([1]; ERKi (FR180204) 50 um, 48 h): 50.3
- GPNMB surface expression ([1]; A375 melanoma, 12, 24 or 48 hours (Table 37, top)): induced GPNMB surface expression
- inhibition of the ERK pathway (phospho-ERK levels) (phospho-ERK (pp-ERK); FIG. 3B bottom, A375, SKMEL2, SF539): relatively weak inhibition
- GPNMB surface expression, flow cytometry GeoMean ([2]; ERKi (FR180204) 3.1 uM, 12 h): 32.6
- GPNMB surface expression, flow cytometry GeoMean ([2]; ERKi (FR180204) 3.1 uM, 24 h): 33.7
- GPNMB surface expression, flow cytometry GeoMean ([2]; ERKi (FR180204) 3.1 uM, 48 h): 32.6
- GPNMB surface expression, flow cytometry GeoMean ([2]; ERKi (FR180204) 50 um, 12 h): 31.3
- GPNMB surface expression, flow cytometry GeoMean ([2]; ERKi (FR180204) 50 um, 24 h): 30.7
- GPNMB surface expression, flow cytometry GeoMean ([2]; ERKi (FR180204) 50 um, 48 h): 30.6
- GPNMB induction (immunoblotting) (GPNMB; A375 cells, only following an exposure time of 48 hours (FIG. 3B, bottom)): strong induction
- GPNMB induction (immunoblotting) (GPNMB; SKMEL2 or SF539 cells (FIG. 3B, bottom)): Little or no GPNMB induction

Compound: CR011-vcMMAE: antibody-drug conjugate of anti-GPNMB antibody CR011 with Auristatin E (vcMMAE) through a protease-cleavable linker
- growth-inhibition (UACC62 melanoma cells; UACC62 cells not pretreated with the MEK inhibitor): little growth-inhibition
- growth-inhibition (UACC62 melanoma cells; UACC62 cells pretreated with the MEK inhibitor (U0126 1 μM, 48 hours)): strong growth-inhibition

Compound: IFNγ: IFNγ, compound examined in the screen
- increase of GPNMB expression in the screen (GPNMB): ineffective

Compound: O=NN(CCCl)C(=O)NCCCl [carmustine]
- increase of GPNMB expression in the screen (GPNMB): ineffective

Compound: C[C@@H]1C[C@@H]([C@H](O)CC2CC(=O)NC(=O)C2)C(=O)[C@@H](C)C1 [cyclohexamide]
- GPNMB expressed after protein synthesis inhibition (GPNMB): little or no GPNMB

Compound: CC(C)C[C@H](NC(=O)[C@H](Cc1ccccc1)NC(=O)c1cnccn1)B(O)O [bortezomib]
- increase of GPNMB expression in the screen (GPNMB): ineffective

Compound: Nc1ncn([C@@H]2O[C@H](CO)[C@@H](O)[C@H]2O)c(=O)n1 [Mab 5-AZA]
- increase of GPNMB expression in the screen (GPNMB): ineffective

Compound: O=c1cc(N2CCOCC2)oc2c(-c3ccccc3)cccc12 [LY94002]
- increase of GPNMB expression in the screen (GPNMB): ineffective

Compound: CCN(CC)CCCC(C)Nc1ccnc2cc(Cl)ccc12 (centres unmarked) [chloroquine]
- GPNMB surface expression, flow cytometry GeoMean [3]: 91.2
- GPNMB surface-expression [3]: increase GPNMB surface-expression
- GPNMB expression (immunoblotting) (GPNMB; [4]): induced

Compound: Cc1ccc(NC(=O)c2ccc(CN3CCN(C)CC3)cc2)cc1Nc1nccc(-c2cccnc2)n1 [imatinib]
- GPNMB surface expression, flow cytometry GeoMean [3]: 103.7
- GPNMB surface-expression [3]: increase GPNMB surface-expression
- phospho-ERK (phospho-ERK (pp-ERK); melanoma and glioblastoma cell lines, imatinib 20 μM, 48 hours (FIG. 6B)): without inhibiting phospho-ERK
- GPNMB expression (immunoblotting) (GPNMB; [4]): induced
- GPNMB expression (immunoblotting) (GPNMB; variety of melanoma and glioblastoma cell lines, 48 hours (FIG. 6B, 6C)): strongly induced; also recorded: robust GPNMB expression

Compound: Cl.N [ammonium chloride]
- GPNMB surface expression, flow cytometry GeoMean [3]: 93.8
- GPNMB surface-expression [3]: increase GPNMB surface-expression
- GPNMB induction compared with MTf and MCAM (GPNMB; NH4Cl 20 mM, 48 hours (FIG. 6E)): more highly induced
- GPNMB detection with protein synthesis inhibitor (GPNMB; ammonium chloride (50 mM) along with protein synthesis inhibitor, 1 hour (FIG. 6D)): readily detectable
- GPNMB expression (immunoblotting) (GPNMB; [4]): induced

Compound: Oc1ccc(-c2nc(-c3ccc(F)cc3)c(-c3ccncc3)[nH]2)cc1 [SB202190, 4-[4-(4-Fluorophenyl)-5-(4-pyridinyl)-1H-imidazol-2-yl]phenol]
- GPNMB surface expression, flow cytometry GeoMean [3]: 85.1

Compound: O=C(/C=C/c1cccc(S(=O)(=O)Nc2ccccc2)c1)NO [belinostat]
- increase of GPNMB expression in the screen (GPNMB): ineffective

Compound: Cc1ccc2nc(NCCN)c3ncc(C)n3c2c1 [BMS345541]
- increase of GPNMB expression in the screen (GPNMB): ineffective

Compound: CC(=O)O[C@H]1C(=O)[C@@]2(C)[C@H]([C@H](OC(=O)c3ccccc3)[C@]3(O)C[C@H](OC(=O)[C@H](O)[C@@H](NC(=O)c4ccccc4)c4ccccc4)C(C)=C1C3(C)C)[C@]1(OC(C)=O)CO[C@@H]1C[C@@H]2O [paclitaxel]
- increase of GPNMB expression in the screen (GPNMB): ineffective

Compound: CC[C@H]1CN2CCc3cc(OC)c(OC)cc3[C@@H]2C[C@@H]1C[C@H]1NCCc2cc(OC)c(OC)cc21 [emetine]
- GPNMB expressed after protein synthesis inhibition (GPNMB): little or no GPNMB

Compound: IFNα
- increase of GPNMB expression in the screen (GPNMB): ineffective
